# Experimental data as given in patent US20060173064A1, “(-)-1-(3,4-Dichlorophenyl)-3-azabi cyclo[3.1.0]hexane, compositions thereof, and uses for treating alcohol-related disorders” (priority 2001, published 2006).
# Marks after values point to notes of the source that are not given here.
# Assays:
# [1] = target: norepinephrine transporter (norepinephrine uptake site), rat forebrain membranes (Rattus norvegicus, UniProt Q63380); conditions: Table 2; hydrochloride
# Protocol: The norepinephrine transporter binding assay was performed according to the methods described in Raisman et al., 1982, Eur. J. Pharmacol. 78:345-351 and Langer et al., 1981, Eur. J. Pharmacol. 72:423. […] Reactions were carried out in 50 mM TRIS-HCI (pH 7.4), containing 300 mM NaCl and 50 mM KCl and at 0° C. to 4° C. for four hours. The reaction was terminated by rapid vacuum filtration onto glass fiber filters. Radioactivity trapped in the filters was determined and compared to control values in order to ascertain the interactions of the test compound with the norepinephrine uptake site.
# [2] = target: T1, serotonin transporter (serotonin uptake site), human platelet membranes (Homo sapiens, UniProt P31645); assay: Serotonin transporter binding assay ([3H]citalopram); conditions: summary of Table 3; hydrochloride
# T1 construct: The receptor source was human platelet membranes; from tissue; host or cells: human platelets (membranes)
# Protocol: Reactions were carried out in 50 mM TRIS-HCl (pH 7.4), containing 120 mM NaCl and 5 mM KCl and at 25° C. for one hour. The reaction was terminated by rapid vacuum filtration onto glass fiber filters. Radioactivity trapped in the filters was determined and compared to control values in order to ascertain the interactions of the test compound with the serotonin uptake site.
# [3] = target: T2, dopamine transporter (dopamine uptake site), guinea pig striatal membranes (Cavia porcellus, UniProt H0WCX4); assay: Dopamine transporter binding assay ([3H]WIN 35,428); conditions: summary of Table 1
# T2 construct: The receptor source was guinea pig striatal membranes; from tissue; host or cells: guinea pig striatum (membranes)
# Protocol: The dopamine uptake transporter binding assay was performed according to the methods described in Madras et al., 1989, Mol. Pharmacol. 36(4):518-524 and Javitch et al., 1984, Mol. Pharmacol. 26(1):35-44. […] Reactions were carried out in 50 mM TRIS-HCI (pH 7.4), containing 120 mM NaCl and at 0° C. to 4° C. for two hours. The reaction was terminated by rapid vacuum filtration onto glass fiber filters. Radioactivity trapped in the filters was determined and compared to control values in order to ascertain the interactions of the test compound with the dopamine uptake site.
# [4] = target: hSERT (recombinant human serotonin transporter) (Homo sapiens, UniProt P31645); assay: Inhibition of [3H]5-HT uptake in HEK-hSERT cells; conditions: (−)-enantiomer versus the racemate
# [5] = Body weight of the mHEP rat in the ethanol study; type: in vivo; conditions: for Bodyweight, Mean ± s.e.m., pre-: three-day pre-treatment period (baseline); for Bodyweight, Mean ± s.e.m., pre- / Bodyweight, Mean ± s.e.m., during / Bodyweight, Mean ± s.e.m., post-: male mHEP rat; for Bodyweight, Mean ± s.e.m., during: during three days of injections; for Bodyweight, Mean ± s.e.m., post-: three-day post-treatment period
# Protocol: (§1) The study described here was performed using procedures modified from previous reports (Myers R D et al., Genetics of alcoholism: Rapid development of a new high ethanol preferring (HEP) strain of female and male rats, Alcohol 16:343-357, 1998; […] et al., Effects of NMDA glutamate receptor antagonist drugs on the consumption of ethanol by a genetic drinking rat, Brain Res. Bull 64:279-284, 2004). Briefly, subject male rats were taken from the selectively bred Myers' high ethanol preferring (MHEP) line (Myers et al., Alcohol 16:343-357, 1998), which drink copious amounts of ethanol, even in the presence of palatable alternatives. These rats were subjected to an ethanol preference selection protocol, 3% to 30% during a 10-day “step up” procedure that ensures the maximum amount of drinking at each rat's desired ethanol concentration, with the proportion of ethanol to total fluid consumption of approximately 50%. After the rats were selected and drinking a fixed concentration of ethanol, they were subjected to a three-day baseline ethanol consumption period. This was followed by a three-day period of test drug administration (IP), then a three-day post-treatment period. During this entire study, the following parameters were measured on a daily basis: volume of water consumed; volume of ethanol solution consumed; weight of food consumed; and rat body weight. […] Doses were calculated as the free base form of each drug. Once drinking stabilized to baseline levels post-treatment, a different dose of drug was administered. […] The order of drug doses or vehicle (0.9% saline) was set up in a counter-balanced design. The data were averaged for each period for each rat then grouped and analyzed by one-way repeated measures ANOVA and Tukey's post-hoc analysis.
# [6] = system: male mHEP rat; assay: Volitional consumption of ethanol in the HEP (high ethanol preferring) rat; type: in vivo; conditions: for Ethanol Consumption, Mean ± s.e.m., pre-: three-day pre-treatment period (baseline); for Ethanol Consumption, Mean ± s.e.m., pre- / Ethanol Consumption, Mean ± s.e.m., during / Ethanol Consumption, Mean ± s.e.m., post-: male mHEP rat; for Ethanol Consumption, Mean ± s.e.m., during: during three days of injections; for Ethanol Consumption, Mean ± s.e.m., post-: three-day post-treatment period
# Protocol: as §1
# Chain of norepinephrine transporter (norepinephrine uptake site), rat forebrain membranes (Q63380 1-617): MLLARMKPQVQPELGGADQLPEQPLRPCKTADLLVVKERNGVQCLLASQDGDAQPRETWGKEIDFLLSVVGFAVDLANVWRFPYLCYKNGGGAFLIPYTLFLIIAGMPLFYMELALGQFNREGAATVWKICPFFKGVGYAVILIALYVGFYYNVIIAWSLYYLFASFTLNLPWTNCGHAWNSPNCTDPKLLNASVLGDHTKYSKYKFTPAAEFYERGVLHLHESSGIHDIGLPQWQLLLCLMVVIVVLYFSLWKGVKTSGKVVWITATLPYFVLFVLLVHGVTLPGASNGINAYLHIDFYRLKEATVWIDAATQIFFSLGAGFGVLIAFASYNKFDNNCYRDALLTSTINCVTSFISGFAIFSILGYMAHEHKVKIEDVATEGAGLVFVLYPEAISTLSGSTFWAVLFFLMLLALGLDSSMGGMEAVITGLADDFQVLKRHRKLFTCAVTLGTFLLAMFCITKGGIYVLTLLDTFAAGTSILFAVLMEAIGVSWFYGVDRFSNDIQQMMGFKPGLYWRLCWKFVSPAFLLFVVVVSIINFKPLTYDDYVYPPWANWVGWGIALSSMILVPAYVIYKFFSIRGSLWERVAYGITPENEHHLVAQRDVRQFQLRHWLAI
# T2 sequence (H0WCX4 1-619): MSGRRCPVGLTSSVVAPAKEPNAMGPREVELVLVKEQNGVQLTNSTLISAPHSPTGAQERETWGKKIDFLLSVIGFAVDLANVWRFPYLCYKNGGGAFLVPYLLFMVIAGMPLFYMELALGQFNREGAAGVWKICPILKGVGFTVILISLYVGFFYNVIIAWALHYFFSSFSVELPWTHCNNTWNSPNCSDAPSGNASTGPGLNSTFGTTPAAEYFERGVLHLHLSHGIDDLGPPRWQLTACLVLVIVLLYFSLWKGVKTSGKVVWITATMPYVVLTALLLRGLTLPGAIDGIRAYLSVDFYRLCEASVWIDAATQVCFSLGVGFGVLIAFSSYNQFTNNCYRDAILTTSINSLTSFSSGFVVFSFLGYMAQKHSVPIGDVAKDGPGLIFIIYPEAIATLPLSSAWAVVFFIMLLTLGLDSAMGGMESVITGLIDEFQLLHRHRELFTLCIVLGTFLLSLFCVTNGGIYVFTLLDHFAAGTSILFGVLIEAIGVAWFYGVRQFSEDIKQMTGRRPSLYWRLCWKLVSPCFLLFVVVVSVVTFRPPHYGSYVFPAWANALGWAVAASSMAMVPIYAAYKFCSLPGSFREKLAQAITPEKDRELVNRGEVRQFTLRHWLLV
# T1 sequence (P31645 whole entry): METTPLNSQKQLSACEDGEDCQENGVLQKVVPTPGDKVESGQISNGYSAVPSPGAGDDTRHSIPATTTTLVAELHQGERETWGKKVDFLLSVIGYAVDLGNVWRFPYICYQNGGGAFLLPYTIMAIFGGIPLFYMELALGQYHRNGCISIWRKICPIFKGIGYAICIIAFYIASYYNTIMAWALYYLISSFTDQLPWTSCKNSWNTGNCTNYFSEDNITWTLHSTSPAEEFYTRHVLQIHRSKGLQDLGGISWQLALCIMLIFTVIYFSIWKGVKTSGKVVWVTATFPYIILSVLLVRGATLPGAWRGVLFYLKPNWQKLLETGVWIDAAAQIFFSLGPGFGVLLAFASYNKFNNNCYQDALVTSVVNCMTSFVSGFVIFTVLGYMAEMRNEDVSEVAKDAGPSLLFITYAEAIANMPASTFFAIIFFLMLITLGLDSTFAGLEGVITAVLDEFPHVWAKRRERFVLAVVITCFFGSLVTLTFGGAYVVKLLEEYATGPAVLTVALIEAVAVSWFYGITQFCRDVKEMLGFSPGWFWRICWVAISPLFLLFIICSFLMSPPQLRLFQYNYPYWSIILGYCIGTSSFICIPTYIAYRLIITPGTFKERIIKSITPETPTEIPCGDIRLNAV
# Chain of hSERT (recombinant human serotonin transporter) (P31645 whole entry): as above
compound,measurement,setting,value
"Cl.Clc1ccc([C@@]23CNC[C@@H]2C3)cc1Cl (single isomer, unassigned) [(+)-1-(3,4-dichlorophenyl)-3-azabicyclo[3.1.0]hexane HCl] [(+)-1-(3,4-dichlorophenyl)-3-azabicyclo[3.1.0]hexane hydrochloride, reference compound]",affinity for the norepinephrine uptake site (in words),[1],has affinity
same,affinity for the serotonin uptake site (in words),[2],has affinity
"Cl.Clc1ccc([C@@]23CNC[C@@H]2C3)cc1Cl (single isomer, unassigned) [(+)-1-(3,4-dichlorophenyl)-3-azabicyclo[3.1.0]hexane hydrochloride, reference compound]",affinity for the dopamine uptake site (in words),[3],have affinity
"Cl.Clc1ccc([C@@]23CNC[C@@H]2C3)cc1Cl (single isomer, unassigned) [(−)-1-(3,4-dichlorophenyl)-3-azabicyclo[3.1.0]hexane HCl] [(−)-1-(3,4-dichlorophenyl)-3-azabicyclo[3.1.0]hexane hydrochloride]",affinity for the norepinephrine uptake site (in words),[1],no measurable affinity
same,"difference in affinity, uptake at the serotonin transporter",[4],9.6 fold
same,affinity for the serotonin uptake site (in words),[2],no measurable affinity
"Cl.Clc1ccc([C@@]23CNC[C@@H]2C3)cc1Cl (single isomer, unassigned) [(−)-1-(3,4-dichlorophenyl)-3-azabicyclo[3.1.0]hexane hydrochloride]","Bodyweight, Mean ± s.e.m., pre-",[5]; 2.5 mg/kg b.i.d. IP group,0.369 ± 0.019 kg
same,"Bodyweight, Mean ± s.e.m., during",[5]; 2.5 mg/kg b.i.d. IP,0.372 ± 0.019 kg
same,"Bodyweight, Mean ± s.e.m., post-",[5]; 2.5 mg/kg b.i.d. IP,0.373 ± 0.019 kg
same,"Bodyweight, Mean ± s.e.m., pre-",[5]; 5.0 mg/kg b.i.d. IP group,0.392 ± 0.009 kg
same,"Bodyweight, Mean ± s.e.m., during",[5]; 5.0 mg/kg b.i.d. IP,0.394 ± 0.009 kg
same,"Bodyweight, Mean ± s.e.m., post-",[5]; 5.0 mg/kg b.i.d. IP,0.394 ± 0.007 kg
same,"Bodyweight, Mean ± s.e.m., pre-",[5]; 10.0 mg/kg b.i.d. IP group,0.381 ± 0.028 kg
same,"Bodyweight, Mean ± s.e.m., during",[5]; 10.0 mg/kg b.i.d. IP,0.381 ± 0.028 kg
same,"Bodyweight, Mean ± s.e.m., post-",[5]; 10.0 mg/kg b.i.d. IP,0.382 ± 0.028 kg
same,"Bodyweight, Mean ± s.e.m., pre-",[5]; 20.0 mg/kg b.i.d. IP group,0.421 ± 0.015 kg
same,"Bodyweight, Mean ± s.e.m., during",[5]; 20.0 mg/kg b.i.d. IP,0.423 ± 0.015 kg
same,"Bodyweight, Mean ± s.e.m., post-",[5]; 20.0 mg/kg b.i.d. IP,0.418 ± 0.015^a kg
same,body weight (in words),"[5]; treated rats, as expected for rats of this age",small increases in body weight
same,"Ethanol Consumption, Mean ± s.e.m., pre-",[6]; 2.5 mg/kg b.i.d. IP group,5.39 ± 0.89 g ethanol/kg/day
same,"Ethanol Consumption, Mean ± s.e.m., during",[6]; 2.5 mg/kg b.i.d. IP,4.32 ± 0.69 g ethanol/kg/day
same,"Ethanol Consumption, Mean ± s.e.m., post-",[6]; 2.5 mg/kg b.i.d. IP,5.79 ± 0.86^a g ethanol/kg/day
same,"Ethanol Consumption, Mean ± s.e.m., pre-",[6]; 5.0 mg/kg b.i.d. IP group,6.00 ± 0.59 g ethanol/kg/day
same,"Ethanol Consumption, Mean ± s.e.m., during",[6]; 5.0 mg/kg b.i.d. IP,4.33 ± 0.62 g ethanol/kg/day
same,"Ethanol Consumption, Mean ± s.e.m., post-",[6]; 5.0 mg/kg b.i.d. IP,5.66 ± 0.64 g ethanol/kg/day
same,"Ethanol Consumption, Mean ± s.e.m., pre-",[6]; 10.0 mg/kg b.i.d. IP group,6.77 ± 0.51 g ethanol/kg/day
same,"Ethanol Consumption, Mean ± s.e.m., during",[6]; 10.0 mg/kg b.i.d. IP,3.50 ± 0.45 g ethanol/kg/day
same,"Ethanol Consumption, Mean ± s.e.m., post-",[6]; 10.0 mg/kg b.i.d. IP,4.15 ± 0.61 g ethanol/kg/day
same,effect on ethanol consumption during the post-treatment period (in words),"[6]; 10 mg/kg b.i.d., post-treatment period",significant carry over effect
same,"Ethanol Consumption, Mean ± s.e.m., pre-",[6]; 20.0 mg/kg b.i.d. IP group,5.26 ± 0.49 g ethanol/kg/day
same,"Ethanol Consumption, Mean ± s.e.m., during",[6]; 20.0 mg/kg b.i.d. IP,1.80 ± 0.28 g ethanol/kg/day
same,"Ethanol Consumption, Mean ± s.e.m., post-",[6]; 20.0 mg/kg b.i.d. IP,2.89 ± 0.45 g ethanol/kg/day
same,decrease in the proportion of alcohol consumed (volume of ethanol / total volume of ethanol solution and water),"[6]; 20 mg/kg b.i.d., after treatment",41%
same,decrease in the proportion of alcohol consumed (volume of ethanol / total volume of ethanol solution and water),"[6]; 20 mg/kg b.i.d., during treatment",62.3%
same,ethanol consumption depressed compared to the pre-treatment period,"[6]; 20 mg/kg b.i.d., post-treatment period",55.1%
same,decrease in ethanol consumption compared to the pre-treatment period,"[6]; 20 mg/kg b.i.d., treatment period",65.8%
same,amount of ethanol consumed (in words),"[6]; across doses, mHEP rat",strong dose-dependent decrease in consumption
same,volitional consumption of ethanol (in words),[6]; dose range of 5.0 to 20 mg/kg b.i.d.,significantly reduced
same,proportion of ethanol consumed (in words),[6]; mHEP rat,strong decrease
same,affinity for the dopamine uptake site (in words),[3],have affinity
